Consider 3 compounds from patent EP2545917B1, “NOVEL EP4 AGONIST” (Kaken Pharmaceutical Co., Ltd., priority 2010, dated 2011).

A short description of data set [1]: In vitro metabolic stability: β-oxidation reaction in rat liver mitochondria fraction. It is filed as in vitro ADME. The note with it: parent compound after NADPH-independent β-oxidation reaction, 37°C, 30 min, tested as isomer mixtures, average ± SD of 3 experiments. How it is done:
A mixture of the compound F and compound J of the present invention described in Table 1 (F:J = 52:41, synthesized in Example 14), and a mixture of compounds wherein the tetrazole groups at C-1 of compound F and compound J are respectively substituted by carboxylic acid (referred to as carboxylate form, F:J = 54:34, synthesized in Example 15) were tested.
First, a mitochondria fraction was prepared from the rat liver according to the following Reference A. Then, in reference to the method of […] et al. described in the following References B and C, an NADPH-independent β oxidation reaction was studied. The reaction was carried out at 37°C for 30 min, and stopped with a methanol solution containing a suitable internal standard substance. Each compound was quantified by the internal standard method using a high performance liquid chromatography mass spectrometry apparatus (LC-MS/MS). The compound residual ratio after metabolic reaction of compounds F, J and each carboxylate form thereof in rat mitochondria fraction is shown in the following Table 2 in average ± standard deviation of 3 experiments. Table 2 Residual Ratio of Parent Compound after β-Oxidation Reaction

A short description of data set [2]: Plasma pharmacokinetics after intravenous administration to rats. The format is in vivo. Conditions: male, rat. How it is done:
To verify the in vivo metabolic stability of the compound of the present invention, plasma pharmacokinetics was evaluated after intravenous administration to rats. Male rats (6 weeks old, body weight 160 - 180 g) were acclimated for 1 week, and the animals diagnosed healthy were used. A mixture of compound F and compound J of the present invention described in Table 1 (F:J = 52:41), and a mixture of carboxylate forms of compound F and compound J (F:J = 54:34), and compound F (synthesized in Example 9) were dissolved in a small amount of ethanol and physiological saline was added to prepare test compound solutions. The test compound solutions were instantaneously administered intravenously at 1 mL/kg from the femoral vein of non-fasting rats under light ether anesthesia. Venous blood was drawn from the tail vein 5, 15, 30, 45, 60, 90 and 120 min after administration. The blood was mixed with heparin and centrifuged (3000 rpm, 4°C, 15 min) to obtain plasma. The plasma compound concentration was determined by the internal standard method using LC-MS/MS. The determination range by this method was from 0.1 to 100 ng/mL. The compound concentrations obtained from each rat were analyzed in a model-independent way using a pharmacokinetics analysis software WinNonlin (ver.3.3), and average ± standard deviation of 3 animals for each group was obtained.

A further data set has as its target T1, Human EP1 (Homo sapiens, UniProt P34995).
T1 construct: expressed in transfected cells; host or cells: COS-7
T1 sequence (P34995 1-402): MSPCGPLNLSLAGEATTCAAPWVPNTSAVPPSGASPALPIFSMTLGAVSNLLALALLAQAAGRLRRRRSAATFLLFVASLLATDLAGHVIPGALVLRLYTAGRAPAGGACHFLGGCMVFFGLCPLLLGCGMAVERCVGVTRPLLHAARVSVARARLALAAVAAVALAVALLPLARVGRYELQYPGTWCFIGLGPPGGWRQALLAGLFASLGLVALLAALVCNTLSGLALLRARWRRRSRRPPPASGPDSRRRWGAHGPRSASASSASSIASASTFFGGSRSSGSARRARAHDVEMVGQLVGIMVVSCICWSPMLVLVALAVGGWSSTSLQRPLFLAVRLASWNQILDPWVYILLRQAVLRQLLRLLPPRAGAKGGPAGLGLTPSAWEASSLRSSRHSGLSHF
The data set can be described thus: Receptor affinity, tritium-labeled PGE2 binding to membranes of transfected COS-7 cells. How it is done:
(§1) PG receptor affinity of compound F and compound J of the present invention was evaluated. Compound F used was one synthesized in Example 9, and compound J was prepared by separating and purifying the compound synthesized in Example 14 with a column (the same preparations were used in the following Examples). COS-7 cells were transfected with the genes of mouse EP4, human EP1-4 or human IP to overexpress the receptor and then the cell membranes were collected. As a labeled ligand, tritium-labeled PGE2 was used for EPs; tritium-labeled iloprost, for IP. The dissociation constant Kd value was obtained and inhibition constant Ki value of each test compound was determined in a conventional method. As a reference control, PGE2 was used for EPs; beraprost sodium (BPS), for IP.

In a further data set the target is T2, Human EP2 (Homo sapiens, UniProt P43116).
T2 construct: expressed in transfected cells; host or cells: COS-7
T2 sequence (P43116 whole entry): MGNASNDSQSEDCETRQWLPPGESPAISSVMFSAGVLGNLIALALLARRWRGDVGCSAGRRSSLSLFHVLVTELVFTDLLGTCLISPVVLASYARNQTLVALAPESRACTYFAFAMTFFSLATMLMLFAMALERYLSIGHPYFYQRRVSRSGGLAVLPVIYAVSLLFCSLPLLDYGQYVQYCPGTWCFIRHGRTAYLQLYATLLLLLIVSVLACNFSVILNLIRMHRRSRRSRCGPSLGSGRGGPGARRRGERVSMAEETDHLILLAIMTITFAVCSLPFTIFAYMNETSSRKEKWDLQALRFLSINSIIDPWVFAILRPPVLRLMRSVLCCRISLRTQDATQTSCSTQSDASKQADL
The description is as above. How it is done:
as §1, with “As a labeled ligand, tritium-labeled PGE2 was used for EPs; tritium-labeled iloprost, for IP.” left out, “method.” for “method. As a reference control, PGE2 was used for EPs; beraprost sodium (BPS), for IP.”

A further data set has as its target T3, Mouse EP4 (Mus musculus, UniProt P32240).
T3 construct: expressed in transfected cells; host or cells: COS-7
The description is as above. How it is done: as §1, with “As a labeled ligand, tritium-labeled PGE2 was used for EPs; tritium-labeled iloprost, for IP.” left out, “method.” for “method. As a reference control, PGE2 was used for EPs; beraprost sodium (BPS), for IP.”

Another data set has as its target T4, Human EP3 (Homo sapiens, UniProt P43115).
T4 construct: expressed in transfected cells; host or cells: COS-7
T4 sequence (P43115 1-390): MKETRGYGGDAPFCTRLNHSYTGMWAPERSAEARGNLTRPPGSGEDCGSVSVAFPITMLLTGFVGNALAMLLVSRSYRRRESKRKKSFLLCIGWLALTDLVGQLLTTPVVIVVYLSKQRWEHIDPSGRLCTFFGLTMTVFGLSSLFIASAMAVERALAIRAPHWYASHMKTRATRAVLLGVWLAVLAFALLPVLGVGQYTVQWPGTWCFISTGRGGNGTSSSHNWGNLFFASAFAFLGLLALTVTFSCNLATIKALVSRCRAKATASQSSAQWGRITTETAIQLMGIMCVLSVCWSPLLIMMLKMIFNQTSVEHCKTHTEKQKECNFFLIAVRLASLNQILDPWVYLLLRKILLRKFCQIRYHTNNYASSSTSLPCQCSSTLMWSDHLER
The description is as above. How it is done: (§2) COS-7 cells were transfected with the genes of mouse EP4, human EP1-4 or human IP to overexpress the receptor and then the cell membranes were collected. […] The dissociation constant Kd value was obtained and inhibition constant Ki value of each test compound was determined in a conventional method.

Data set [3] addresses T5, Human EP4 (Homo sapiens, UniProt P35408).
T5 construct: expressed in transfected cells; host or cells: COS-7
The description is as above. How it is done: as §2

For the next data set, the target named is T6, Human IP (Homo sapiens, UniProt P43119).
T6 construct: expressed in transfected cells; host or cells: COS-7
T6 sequence (P43119 whole entry): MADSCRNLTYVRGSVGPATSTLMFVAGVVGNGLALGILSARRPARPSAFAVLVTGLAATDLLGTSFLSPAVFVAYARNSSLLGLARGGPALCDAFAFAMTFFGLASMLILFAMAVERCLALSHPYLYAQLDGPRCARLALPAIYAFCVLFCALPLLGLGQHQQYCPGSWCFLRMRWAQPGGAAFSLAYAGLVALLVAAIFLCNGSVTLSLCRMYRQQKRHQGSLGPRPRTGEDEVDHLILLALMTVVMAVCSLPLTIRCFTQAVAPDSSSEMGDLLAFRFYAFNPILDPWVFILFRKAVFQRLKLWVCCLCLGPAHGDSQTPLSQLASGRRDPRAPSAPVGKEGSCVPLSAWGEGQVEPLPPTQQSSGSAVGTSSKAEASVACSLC
The data set can be described thus: Receptor affinity, tritium-labeled iloprost binding to membranes of transfected COS-7 cells. Conditions: COS-7 cell membranes. How it is done: as §1

Data set [4] addresses T5, Human EP4. Kind of data set: EP4 agonist activity, CRE-LUC reporter gene in transfected COS-7 cells. It is filed as cell-based. How it is done:
In brief, human EP4 gene and CRE-LUC reporter gene were transfected into COS-7 cells. The cells were treated with a test compound one day later, and incubated for 3 hr. The cells were washed, a luminescence substrate was added, and the luminescence intensity was measured for the agonist activity.
On the technique in general: A reporter such as luciferase makes a cellular process visible.

The test system of data set [5] is Human Platelet Aggregation. The data set can be described thus: Inhibitory effect on ADP-induced platelet aggregation in platelet-rich plasma. It is filed as cell-based. The note with it: ADP 10 µmol/L, geometric mean of three volunteers. The protocol: The inhibitory effect of compounds F and J, and carboxylate forms thereof on platelet aggregation was evaluated. The carboxylate forms were prepared by separating and purifying the compound synthesized in Example 15 with a column. Blood was drawn from 3 healthy volunteers using sodium citrate as an anticoagulant, and platelet-rich plasma was prepared. The platelet-rich plasma was treated with physiological saline or test compounds and, 2 min later, platelet aggregation was induced with adenosine diphosphate (ADP, final concentration 10 µmol/L) and recorded with a platelet aggregation measurement apparatus (nephelometry).

The next data set has as its system IL-2. The data set can be described thus: Suppressive effect on cytokine production, CD4 positive T cells stimulated with anti-CD3 and anti-CD28 antibody, ELISA. It is filed as cell-based. The note with it: human CD4 positive T cells, anti-CD3/anti-CD28, 24 hr; geometric mean of three volunteers. The protocol: (§3) Blood was collected from 3 healthy volunteers, and CD4 positive T cells were prepared. […] In both cases, the test compound was added 30 min before stimulation.
For orientation: In an ELISA, binding on a coated surface is turned into a signal by an enzyme label.

A further data set has as its system TNF-α. The data set is described as above. It is filed as cell-based. Conditions: human CD4 positive T cells, anti-CD3/anti-CD28, 24 hr; geometric mean of three volunteers. How it is done:
as §3

The next data set has as its system IP-10. Kind of data set: Suppressive effect on cytokine production, whole blood stimulated with lipopolysaccharide, ELISA. It is filed as cell-based. Conditions: human whole blood, indometacin, 48 hr, geometric mean of three volunteers.
The subject of data set [6] is blood pressure and heart rate. Kind of data set: Effect on blood pressure and heart rate in mice. The format is in vivo, ICR mice. The note with it: intravenous 0.01 mg/5 mL/kg, isoflurane anesthesia. How it is done:
Male ICR mice (5 weeks old, Japan SLC) were purchased, acclimated for 6 days and used for the test. The animals were treated and measured under isoflurane inhalation anesthesia (anesthesia introduced at 2.5%, maintained at 1.8-2.1%), while body temperature was kept at 37°C with a Heat Controller (ATC-402, Unique Medical Co., Ltd.). A catheter for administration of test compounds was inserted into the left femoral vein, and another catheter was inserted into the right femoral artery and connected to a pressure transducer to record each parameter of hemodynamics.
Compound F, the carboxylate form of compound F and BPS were intravenously administered at a dose of 0.01 mg/5 mL/kg, and the effect on the mean blood pressure and heart rate was evaluated with computer software for the analysis of hemodynamics (Fluclet, Dainippon Sumitomo Pharma Co., Ltd.). To the control group was intravenously administered a solvent (1.2% ethanol solution) at 5 mL/kg in the same manner. The results are expressed as a ratio of change in each parameter before and after the drug administration. Three to 6 animals were used for each group, and the results were expressed as average ± standard deviation.

Data set [7] has as its system dextran sodium sulfate-induced colitis. Kind of data set: Dextran sodium sulfate-induced colitis model in mice (C57BL/6). The format is in vivo. The note with it: C57BL/6 mice, DSS, oral 0.3 mg/kg once a day. How it is done: Female C57BL/6 mice (6 weeks old, Japan SLC) were purchased, acclimated for 1 week and used for the study. Except the normal group, the mice were allowed to freely drink a 3 or 2 w/v% DSS (MP Biochemicals, Lot No. 5653H and 5464H, respectively) solution for 1 week to induce colitis. BPS at a dose of 0.3 mg/kg and compound F at doses of 0.3 and 1 mg/kg were orally administered once a day, daily, from the start day of DSS drinking (day 0) to one day before autopsy (day 9). To the control group was orally administered a solvent (1 vol% ethanol solution) at 10 mL/kg in the same manner. The consistency of the stool was graded from score 0 to 4, with normal (0), partly loose stool (1), loose stool (2) and diarrhea (4). The blood feces was also graded from score 0 to 4, with normal (0), partly blood feces (1), blood feces (2) and blood feces plus proctorrhagia (4). The sum of both grades was defined as the stool score (maximum 8). Furthermore, the length of the large intestine was measured in the same manner as in Example 23. Six to 10 animals were used for each group, and the results are shown in average ± standard deviation.

T5 sequence (P35408 whole entry): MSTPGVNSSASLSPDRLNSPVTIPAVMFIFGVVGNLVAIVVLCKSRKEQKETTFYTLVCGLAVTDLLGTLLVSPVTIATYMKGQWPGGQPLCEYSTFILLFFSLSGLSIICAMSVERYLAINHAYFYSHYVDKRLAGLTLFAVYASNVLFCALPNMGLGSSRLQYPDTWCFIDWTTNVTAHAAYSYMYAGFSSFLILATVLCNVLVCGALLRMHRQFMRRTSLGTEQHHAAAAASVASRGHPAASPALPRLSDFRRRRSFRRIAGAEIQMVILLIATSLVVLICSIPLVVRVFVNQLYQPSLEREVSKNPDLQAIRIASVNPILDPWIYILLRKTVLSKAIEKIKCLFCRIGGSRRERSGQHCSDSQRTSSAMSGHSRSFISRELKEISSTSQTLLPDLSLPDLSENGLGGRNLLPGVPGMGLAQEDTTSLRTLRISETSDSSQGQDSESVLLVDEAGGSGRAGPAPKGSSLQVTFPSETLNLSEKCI
T3 sequence (P32240 whole entry): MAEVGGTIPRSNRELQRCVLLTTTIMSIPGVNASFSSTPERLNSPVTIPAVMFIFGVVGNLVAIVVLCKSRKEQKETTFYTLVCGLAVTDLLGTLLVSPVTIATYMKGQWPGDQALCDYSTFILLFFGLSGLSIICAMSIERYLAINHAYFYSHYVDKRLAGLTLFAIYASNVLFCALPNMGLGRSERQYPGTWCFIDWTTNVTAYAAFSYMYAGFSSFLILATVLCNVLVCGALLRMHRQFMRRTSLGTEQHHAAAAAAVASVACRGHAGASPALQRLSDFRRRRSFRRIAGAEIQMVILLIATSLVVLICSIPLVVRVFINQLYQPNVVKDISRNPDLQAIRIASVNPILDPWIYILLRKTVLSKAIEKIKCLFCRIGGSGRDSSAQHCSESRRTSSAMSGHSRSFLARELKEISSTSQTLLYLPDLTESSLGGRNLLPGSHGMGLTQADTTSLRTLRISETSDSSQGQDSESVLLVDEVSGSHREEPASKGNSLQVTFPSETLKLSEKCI

As for `Cc1cccc([C@H](C)[C@H](O)/C=C/[C@@H]2[C@@H]3[C@H](C[C@H]2O)O/C(=C\CCCc2nnn[nH]2)C3(F)F)c1` [Compound J, 4-[(Z)-(1S,5R,6R,7R)-6-[(1E,3R,4S)-3-hydroxy-4-(m-tolyl)-1-pentenyl]-7-hydroxy-2-oxa-4,4-difluoro-bicyclo[3.3.0]octan-3-ylidene]-1-(tetrazol-5-yl)butane], in data set [1], the Residual ratio is 90.1±6.9%. Moreover, the half-life (as a rule, the time needed for the level to fall by half in the phase considered) in data set [2] (iv, 50 ug/kg) is 1.28 ± 0.317 h; in data set [2] (rats, intravenous, summary of Table 3) it was 1 to 2 h. Moreover, the Ki (as a rule, a dissociation constant, usually derived from enzyme kinetics or from competition with a known ligand) was 4600 nM at Human EP1; 5400 nM at Human EP2; 590 nM at Mouse EP4; 1500 nM at Human EP3; 83 nM on Human EP4 [3]; 3400 nM on Human IP. In addition, at Human EP4 [3] (ratio of Ki values), the “affinity for binding to human EP4 higher than that to human IP” value is 40 fold. Also, the EC50 (in general, the concentration needed to bring the measured effect to its halfway point) at Human EP4 [4] was found to be 440 nM. Further, the IC50 (in general, the point on the concentration scale where inhibition reaches its midpoint) came to 2720 nM in data set [5], 64 nM in the data set with IL-2, 89.5 nM in the data set with TNF-α and 102 nM in the data set with IP-10.

On Human EP1, `CCCCC[C@H](O)/C=C/[C@H]1[C@H](O)CC(=O)[C@@H]1C/C=C\CCCC(=O)O` [PGE2, reference compound] had a Ki of 2.9 nM. In addition, in the data set with IL-2, the midpoint of inhibition, the IC50, lay at 0.062 nM.

For `CC#CCC(C)[C@H](O)/C=C/[C@@H]1[C@H]2c3cccc(CCCC(=O)O)c3O[C@H]2C[C@H]1O` (mixture of isomers) [BPS, beraprost sodium, reference compound], the inhibition constant Ki on Human EP1 amounted to 942 nM; at Human EP2 it was 4990 nM; on Human EP3, 946 nM; at Human EP4 [3], 6150 nM; at Human IP, 160 nM. Further, the EC50 at Human EP4 [4] is > 1000 nM. The compound further yielded an IC50 in [5] of 36 nM. Also, the “effect on heart rate” value in data set [6] is “on the increase and remained high even after 10 min”. Further, in [6], the “maximum decrease ratio of mean blood pressure” value is on record as 38%. Also, the “effect on stool score” value in data set [7] is reported as “not effective, but rather showed a tendency toward aggravation of the stool score”. Also, the “effect on the shortening of the large intestine” value in [7] is “no effect on the shortening of the large intestine”.
